Here are results for 37 sequences from patent publication US7829524B2, “Antimicrobial peptides” (Novozymes Adenium Biotech A/S, priority 2003, dated 2010).

Like-named read-outs stand apart in the source and are kept apart here.

The test system of the experiment is E. coli TOP10. The format is cell-based. Particulars: end point OD450, 14 hours. The protocol: A range of synthetic antimicrobial polypeptides were expressed in E. coli TOP10 (Invitrogen) using arabinose as inducer, as disclosed in Example 1 of International patent application WO 00/73433 (with minor modifications). […] Briefly, fresh overnight cultures grown in RM medium containing 0.2% glucose and ampicillin (100 μg/ml) were diluted 300-fold into 150 microliter of RM containing 0.2% glycerol and ampicillin (100 μg/ml) and different concentrations of arabinose (0, 0.01% or 0.1%) in a microtiter plate and incubated at 37 degrees Celsius with vigorous shaking. The growth curve was monitored by measuring OD450 using a Bioscreen C Microbiology reader (Thermo Electron Corporation) at intervals of 30 minutes for 14 hours (see Invitrogen protocol of the pBAD/gill A, B and C vectors catalogue nos. V450-01 for buffer and media composition). The percentage of growth inhibition was calculated as the end point OD measurement of each sample divided by the end point OD measurement obtained from cells containing the control vector and multiplied by 100. The formula is the following: [formula] where “blank OD” corresponds to the OD of an empty well.

Turning to “GLFKRLRKKIGKKLKKFGQKIKPLRKLVP (Synthetic antimicrobial peptide) [SEQ ID NO: 18]”, the “Growth inhibition using 0.1% arabinose (%)” value (Table 5) came out at 94%.

Consider “GLFRRFGKKIGKKIIKKIGQKIKPIHKLVP (GLFRRFGKKIGKKLKKIGQKIKPIHKLVP; Synthetic antimicrobial peptide) [SEQ ID NO: 43]”, for which, for the setting “Table 5”, the “Growth inhibition using 0.1% arabinose (%)” value was 76%.

For “GLFRRFGKKIGKKLKKIGQVIKALRILVP (Synthetic antimicrobial peptide) [SEQ ID NO: 39]”, the “Growth inhibition using 0.1% arabinose (%)” value (Table 5) was found to be 95%.

In the case of “GLFRRFRRKIGKKLKKFGQKIKPLRKLVP (Synthetic antimicrobial peptide) [SEQ ID NO: 20]”, the “Growth inhibition using 0.1% arabinose (%)” value (Table 5) came out at 97%.

“GLFRRFWKKIGRKLKKIGQKIKPLQILVP (Synthetic antimicrobial peptide) [SEQ ID NO: 47]”: the “Growth inhibition using 0.1% arabinose (%)” value (Table 5) came out at 79%.

“GLFRRIRRKIGKKFKKFGQVIKPLRKLVP (Synthetic antimicrobial peptide) [SEQ ID NO: 52]”: the “Growth inhibition using 0.1% arabinose (%)” value (Table 5) was determined as 95%.

Take “GLFRRLGKKIGKKIKKFGQVIKHIRILVP (GLFRRLGKKIGKKLKKFGQVIKHIRILVP; Synthetic antimicrobial peptide) [SEQ ID NO: 34]”: the “Growth inhibition using 0.1% arabinose (%)” value (Table 5) was 92%.

Regarding “GLFRRLGRKIGKKLKKIGQVIKHIRILVP (Synthetic antimicrobial peptide) [SEQ ID NO: 36]”, the “Growth inhibition using 0.1% arabinose (%)” value (Table 5) is 95%.

Turning to “GLFRRLKRKIGKKLKKIAR (Synthetic antimicrobial peptide) [SEQ ID NO: 65]”, for the setting “Table 6”, the “Growth inhibition using 0.01% arabinose (%)” value worked out at 91% and the “Growth inhibition using 0.1% arabinose (%)” value came out at 99%.

Consider “GLFRRLKRKIGRKFKKIAR (Synthetic antimicrobial peptide) [SEQ ID NO: 60]”, for which, for the setting “Table 6”, the “Growth inhibition using 0.01% arabinose (%)” value is reported as 85% and the “Growth inhibition using 0.1% arabinose (%)” value is given as 99%.

With “GLFRRLRGKIGKKLKKIGQKIKAIRILVP (Synthetic antimicrobial peptide) [SEQ ID NO: 33]”, the “Growth inhibition using 0.1% arabinose (%)” value (Table 5) is given as 91%.

“GLFRRLRKKIGKKFKKIAR (Synthetic antimicrobial peptide) [SEQ ID NO: 69]”: under “Table 6”, the “Growth inhibition using 0.01% arabinose (%)” value is 86% and the “Growth inhibition using 0.1% arabinose (%)” value was found to be 99%.

As to “GLFRRLRKKIGKKLKKIAR (Synthetic antimicrobial peptide) [SEQ ID NO: 64]”, for the setting “Table 6”, the “Growth inhibition using 0.01% arabinose (%)” value was 92% and the “Growth inhibition using 0.1% arabinose (%)” value stood at 99%.

As for “GLFRRLRKKIGKKLKKIGQLIKAIRILVP (Synthetic antimicrobial peptide) [SEQ ID NO: 23]”, the “Growth inhibition using 0.1% arabinose (%)” value (Table 5) is 97%.

“GLFRRLRRKIGKKFKKFGQKIKPLRKLVP (Synthetic antimicrobial peptide) [SEQ ID NO: 46]”: the “Growth inhibition using 0.1% arabinose (%)” value (Table 5) turned out to be 96%.

As to “GLLKRFRGKIGKKLKKYGQLIKAIRILVP (Synthetic antimicrobial peptide) [SEQ ID NO: 22]”, the “Growth inhibition using 0.1% arabinose (%)” value (Table 5) is reported as 90%.

Regarding “GLLKRLGRKIGKKFKKIAR (Synthetic antimicrobial peptide) [SEQ ID NO: 61]”, where the note is “Table 6”, the “Growth inhibition using 0.01% arabinose (%)” value amounted to 89% and the “Growth inhibition using 0.1% arabinose (%)” value amounted to 98%.

For “GLLKRLGRKIGKKLKKFGQKIKAIRKLVP (Synthetic antimicrobial peptide) [SEQ ID NO: 8]”, where the note is “Table 4”, the “Growth inhibition using 0.01% arabinose (%)” value is reported as 97% and the “Growth inhibition using 0.1% arabinose (%)” value is 100%.

In the case of “GLLKRLRKKIGKKLKKIGPKIKHIRKLVP (Synthetic antimicrobial peptide) [SEQ ID NO: 10]”, under “Table 4”, the “Growth inhibition using 0.01% arabinose (%)” value was found to be 93% and the “Growth inhibition using 0.1% arabinose (%)” value is listed as 100%.

“GLLKRLRKKIGKKLKKIGQKIKPIRKLVP (Synthetic antimicrobial peptide) [SEQ ID NO: 25]”: the “Growth inhibition using 0.1% arabinose (%)” value (Table 5) was 94%.

For “GLLKRLRKKIGKKLKKIGQMIKHIRILVP (Synthetic antimicrobial peptide) [SEQ ID NO: 44]”, under “Table 5”, the “Growth inhibition using 0.1% arabinose (%)” value is on record as 93%.

Regarding “GLLRRFGKKIGKKFKKYGQKIKNLRILVP (Synthetic antimicrobial peptide) [SEQ ID NO: 24]”, for the setting “Table 5”, the “Growth inhibition using 0.1% arabinose (%)” value worked out at 92%.

Take “GLLRRFGRKIGKKFKKFGPKIKHLRKLVP (Synthetic antimicrobial peptide) [SEQ ID NO: 26]”: the “Growth inhibition using 0.1% arabinose (%)” value (Table 5) is recorded as 92%.

As to “GLLRRFGRKIGKKFKKFGPKIKILRKLVP (GLLRRFGRKIGKKFKKFGPKIKHLRKLVP; Synthetic antimicrobial peptide) [SEQ ID NO: 19]”, the “Growth inhibition using 0.1% arabinose (%)” value (Table 5) was determined as 91%.

On to “GLLRRFRBEIGKKLKKYGQKIKHLRKLVP (GLLRRFREKIGKKLKKYGQKIKHLRKLVP; Synthetic antimicrobial peptide) [SEQ ID NO: 45]”, for which the “Growth inhibition using 0.1% arabinose (%)” value (Table 5) is reported as 79%.

As for “GLLRRFRKKIGEKFKKFGQKIKNIRILVP (Synthetic antimicrobial peptide) [SEQ ID NO: 55]”, the “Growth inhibition using 0.1% arabinose (%)” value (Table 5) is given as 79%.

In the case of “GLLRRFRKKIGGKLKKYGQIIKHLRILVP (Synthetic antimicrobial peptide) [SEQ ID NO: 5]”, for the setting “Table 4”, the “Growth inhibition using 0.01% arabinose (%)” value is on record as 94% and the “Growth inhibition using 0.1% arabinose (%)” value stood at 100%.

In the case of “GLLRRFRKKIGKKLKKITR (Synthetic antimicrobial peptide) [SEQ ID NO: 67]”, for the setting “Table 6”, the “Growth inhibition using 0.01% arabinose (%)” value amounted to 90% and the “Growth inhibition using 0.1% arabinose (%)” value stood at 100%.

Regarding “GLLRRFRKKIGKKLKKYGQKIKHLRILVP (Synthetic antimicrobial peptide) [SEQ ID NO: 57]”, the “Growth inhibition using 0.1% arabinose (%)” value (Table 5) stood at 95%.

Turning to “GLLRRFRNKIGKKLKKIGQKIKPIRKLVP (Synthetic antimicrobial peptide) [SEQ ID NO: 50]”, the “Growth inhibition using 0.1% arabinose (%)” value (Table 5) is recorded as 92%.

Take “GLLRRFRRKIGRKLKKYGLMIKPLRKLVP (Synthetic antimicrobial peptide) [SEQ ID NO: 21]”: the “Growth inhibition using 0.1% arabinose (%)” value (Table 5) is 94%.

With “GLLRRFWMKIGGKLKKFGQMIKHLRKLVP (Synthetic antimicrobial peptide) [SEQ ID NO: 11]”, where the note is “Table 4”, the “Growth inhibition using 0.01% arabinose (%)” value is given as 92% and the “Growth inhibition using 0.1% arabinose (%)” value is listed as 99%.

“GLLRRIIGKKIGKKFKKCGQVIKAIRILVP (GLLRRLGKKIGKKFKKCGQVIKAIRILVP; Synthetic antimicrobial peptide) [SEQ ID NO: 54]”: under “Table 5”, the “Growth inhibition using 0.1% arabinose (%)” value stood at 89%.

“GLLRRLGKKIGKKFKKFGQVIKALRILVP (Synthetic antimicrobial peptide) [SEQ ID NO: 35]”: the “Growth inhibition using 0.1% arabinose (%)” value (Table 5) came out at 95%.

Take “GLLRRLGRKIGKKLKKIGQKIKAIRILVP (Synthetic antimicrobial peptide) [SEQ ID NO: 49]”: the “Growth inhibition using 0.1% arabinose (%)” value (Table 5) was 96%.

Take “GLLRRLRGKIGKKLKKIGQKIKAIRKLVP (Synthetic antimicrobial peptide) [SEQ ID NO: 4]”: where the note is “Table 4”, the “Growth inhibition using 0.01% arabinose (%)” value turned out to be 89% and the “Growth inhibition using 0.1% arabinose (%)” value is recorded as 100%.

As for “GLLRRLRKKIEKKLKKYGPKIKALRKLVP (Synthetic antimicrobial peptide) [SEQ ID NO: 37]”, the “Growth inhibition using 0.1% arabinose (%)” value (Table 5) was found to be 94%.
